Values of other authors in patent publication US12409168B2, “Formulations of aminopenicillin and methods for solubilizing aminopenicillin” (VETERINARY PHARMACY CORPORATION, priority 2023, dated 2025).

degradation at 24 hours (0.00015 mg/ml, 24 hours): no degradation | degradation to (potency remaining) at 24 hours (0.42 mg/ml, buffered solution, pH 8.04, 24 hours): 73%
SMILES: CC1(C)S[C@@H]2[C@H](NC(=O)[C@H](N)c3ccc(O)cc3)C(=O)N2[C@H]1C(=O)O [Amoxicillin]
